Measured values as given in patent US11534441B2, “MAP4K1 inhibitors” (Blueprint Medicines Corporation, priority 2020, dated 2022).

Key:
MAP4K1 (HPK1) = MAP4K1 (HPK1) (Homo sapiens (Human), UniProt Q92918); assay: MAP4K1 (HPK1) biochemical enzymatic activity, electrophoretic mobility shift (EZReader 2), ATP at APPKM (26 μM)
From the text: MAP4K1 (HPK1) and relevant off-target enzymatic activity was monitored using the Perkin Elmer electrophoretic mobility shift technology platform—the EZReader 2. […] Within the linear, steady-state phase of the kinase enzymatic reaction, the mixed pool of phosphorylated (product) and non-phosphorylated (substrate) peptides was passed through the microfluidic system of the PerkinElmer EZ Reader 2, under an applied electric potential difference. The presence of the phosphate group on the product peptide provided a difference in mass and charge between that of the substrate peptide, resulting in a separation of the substrate and product pools in the sample (Perrin et al. 2010). As the product and substrate peptide mixture passes the lasers within the instrument, these pools are detected (λex=488 nm, λent=568 nm) and resolved as separate peaks. The ratio between these peaks reflects the activity of the compound at that concentration, in that well, under those conditions.
Inhibitors were dissolved in 100% DMSO at a stock concentration of 10 mM. A 100×, 10-point, 4-fold serial dilution of each inhibitor was created in 100% DMSO either manually or on a Hamilton STAR liquid handler, starting at a relevant concentration, usually 1 mM. A volume of 0.130 μL of each concentration was transferred to the relevant wells of a 384-well plate (Greiner 781 201) in duplicate using a TTPLabtech Mosquito nano-litre dispenser. Using a Multidrop Combi, the remaining constituents of the kinase reaction were added to the 130 nL of dosed compound as follows (see table below for final reaction details):
Enzyme activity assays at the ^APPKM for ATP or 1 mM ATP: In each well of a 384-well plate, 0.1-15 nM of untreated enzyme was incubated in a total of 13 μL of buffer (100 mM HEPES pH 7.5, 0.015% Brij 35, 10 mM MgCl2, 1 mM DTT) with 1.5 μM fluorescent peptid and 20-1000 μM ATP, at 25° C., for 60-180 minutes in the presence or absence of a dosed concentration series of compound (1% DMSO final concentration). The kinase reactions were stopped by the addition of 70 μl of Stop buffer (100 mM HEPES pH 7.5, 0.015% Brij 35, 35 mM EDTA and 0.2% of Coating Reagent 3 (Caliper Lifesciences)). The plates were read on a Caliper EZReader 2 as described above.

expanded CD3+ T cells = assay: T cell enhancement of cytokines: IL2 measurement (HTRF) in expanded CD3+ T cells stimulated with anti-CD3/anti-CD28; assay type: cell-based, human; settings: IL-2 measurement
Description: T cells are isolated from whole blood of healthy donors by immunomagnetic negative selection following manufacture's protocol (StemCell Technologies, human T cell isolation kit). Purity of isolated cells is assessed by flow cytometry and yields 95-98% CD3^+ T cells. For expansion of T cells, 1×10^6 cells/well are plated in serum free cell expansion media (ThermoFisher) containing 30 U of recombinant human IL2 (R&D) and stimulated with 25 ul of CD3/CD28 beads (Invitrogen) in 24 well plates for 3-4 days. T cells are then expanded in 175 cm flasks and maintained at a cell density of 1 to 2.5×10^6 cells/ml days by addition of ⅔ of fresh media every 2-3 days. After 10-14 days, cells are frozen in BamBanker freezing media (Thermo) and stored in liquid nitrogen.
For IL2 measurement, expanded CD3^+ T cells are dispensed at 100K cells/well (cultured in X-VIVO 10 Serum-free media) and are stimulated with plate-bound anti-CD3 and soluble anti-CD28 in the presence of vehicle or compound of the disclosure at various concentrations for 24 h. As outlined in the manufacturer's protocol (Cisbio), 16 μL of conditioned media is transferred to a white 384-well low volume plate. Following a 24 h incubation with the anti-IL2 antibodies, the homogenous time resolved fluorescence (HTRF) is measured.

[1] = Homo sapiens, T-cell, class designation
[2] = Homo sapiens, T-cell, numeric value

Sequence of MAP4K1 (HPK1) (Q92918 whole entry): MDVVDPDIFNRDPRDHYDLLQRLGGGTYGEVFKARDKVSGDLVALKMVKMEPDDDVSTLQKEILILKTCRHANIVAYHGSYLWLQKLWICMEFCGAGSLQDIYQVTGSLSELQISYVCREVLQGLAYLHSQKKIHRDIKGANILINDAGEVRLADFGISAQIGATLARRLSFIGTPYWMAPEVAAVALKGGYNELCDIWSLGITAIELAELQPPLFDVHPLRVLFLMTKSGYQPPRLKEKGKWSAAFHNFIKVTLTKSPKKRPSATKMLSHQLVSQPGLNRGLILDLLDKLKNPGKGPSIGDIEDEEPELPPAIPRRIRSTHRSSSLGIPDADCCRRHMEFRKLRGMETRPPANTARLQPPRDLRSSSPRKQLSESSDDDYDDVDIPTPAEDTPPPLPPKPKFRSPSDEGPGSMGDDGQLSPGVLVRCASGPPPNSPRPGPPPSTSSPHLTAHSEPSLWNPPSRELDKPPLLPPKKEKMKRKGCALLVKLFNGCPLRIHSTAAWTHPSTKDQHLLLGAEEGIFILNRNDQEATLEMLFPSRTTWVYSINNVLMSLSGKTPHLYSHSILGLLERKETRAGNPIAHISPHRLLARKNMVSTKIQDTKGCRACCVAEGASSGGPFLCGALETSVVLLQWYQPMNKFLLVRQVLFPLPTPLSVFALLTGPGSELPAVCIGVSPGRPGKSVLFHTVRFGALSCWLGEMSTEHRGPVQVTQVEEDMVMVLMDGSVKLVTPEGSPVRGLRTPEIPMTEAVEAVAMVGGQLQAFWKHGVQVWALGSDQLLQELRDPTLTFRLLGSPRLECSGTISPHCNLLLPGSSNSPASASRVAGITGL

| Compound | IC50 (MAP4K1 (HPK1); class designation) | IC50 (MAP4K1 (HPK1); numeric value) | EC50 (expanded CD3+ T cells; class designation) | EC50 (expanded CD3+ T cells; numeric value) | EC50 (expanded CD3+ T cells; [1]) | EC50 (expanded CD3+ T cells; [2]) |
| --- | --- | --- | --- | --- | --- | --- |
| COc1ncc(C(C)(C)N)c2cc(Nc3ccc4c(n3)[C@@H](C)COC4=O)ncc12 (single isomer, unassigned) [Compound 22] | 0.31 to 1 nM | 0.5 nM | 35.1 to 45 nM | 36.6 nM | – | – |
| COc1ncc(C(C)(C)N)c2cc(Nc3ccc4c(n3)[C@@H](C)COC4=O)ncc12 (single isomer, unassigned) [Compound 23] | < 0.3 nM | 0.11 nM | < 35 nM | 4.9 nM | – | – |
| COc1ncc(C(C)(C)N)c2cc(Nc3ccc4c(n3)C[C@@H](C)OC4=O)ncc12 (single isomer, unassigned) [Compound 24] | 0.31 to 1 nM | 0.47 nM | < 35 nM | 11.3 nM | – | – |
| COc1ncc(C(C)(C)N)c2cc(Nc3ccc4c(n3)[C@H](C)[C@H](C)OC4=O)ncc12 (single isomer, unassigned) [Compound 40] | < 0.3 nM | 0.15 nM | < 35 nM | 4 nM | – | – |
| CCOc1ncc(C(C)(C)N)c2cc(Nc3ccc4c(n3)[C@@H](C)[C@@H](C)OC4=O)ncc12 (single isomer, unassigned) [Compound 59] | 1.1 to 10 nM | 3.35 nM | > 55 nM | 56.7 nM | – | – |
| CCOc1ncc(C(C)(C)N)c2cc(Nc3ccc4c(n3)[C@H](C)[C@H](C)OC4=O)ncc12 (single isomer, unassigned) [Compound 60] | < 0.3 nM | 0.18 nM | < 35 nM | 10.3 nM | – | – |
| C[C@@H]1OC(=O)c2ccc(Nc3cc4c([C@](C)(N)C5CC5)cnc(OC5CC5)c4cn3)nc2[C@H]1C (single isomer, unassigned) [Compound 75] | – | 0.09 nM | – | – | < 35 nM | 7.3 nM |
| C[C@](N)(c1cnc(OC2CC2)c2cnc(Nc3ccc4c(n3)CCNC4=O)cc12)C1CC1 (single isomer, unassigned) [Compound 106] | – | 0.61 nM | – | – | 35.1 to 45 nM | 41.3 nM |
| C[C@H]1COC(=O)c2ccc(Nc3cc4c([C@](C)(N)C5CC5)cnc(OC5CC5)c4cn3)nc21 (single isomer, unassigned) [Compound 117] | < 0.3 nM | – | – | – | < 35 nM | 16 nM |
| C[C@](N)(c1cnc(OC2CC2)c2cnc(Nc3ccc4c(n3)C3(CC3)COC4=O)cc12)C1CC1 (single isomer, unassigned) [Compound 146] | – | 0.25 nM | – | – | > 55 nM | 60.4 nM |
| C[C@@H]1c2nc(Nc3cc4c([C@](C)(N)C5CC5)cnc(OC5CC5)c4cn3)ccc2C(=O)O[C@@H]1C (single isomer, unassigned) [Compound 154] | < 0.3 nM | 0.08 nM | < 35 nM | 11 nM | – | – |
| C[C@H]1OC(=O)c2ccc(Nc3cc4c([C@](C)(N)C5CC5)cnc(OC5CC5)c4cn3)nc2C12CC2 (single isomer, unassigned) [Compound 167] | < 0.3 nM | 0.05 nM | < 35 nM | 9.4 nM | – | – |
| C[C@H]1OC(=O)c2ccc(Nc3cc4c([C@](C)(N)C5CC5)cnc(OC5CC5)c4cn3)nc2C1(C)C (single isomer, unassigned) [Compound 171] | < 0.3 nM | 0.07 nM | < 35 nM | 27.6 nM | – | – |
| CC[C@@](C)(N)c1cnc(OCC(F)(F)F)c2cnc(Nc3ccc4c(n3)[C@@H](C)[C@H](C)OC4=O)cc12 (single isomer, unassigned) [Compound 181] | < 0.3 nM | – | – | – | < 35 nM | 15.1 nM |
| CC[C@@](C)(N)c1cnc(OCC(F)(F)F)c2cnc(Nc3ccc4c(n3)[C@@H](C)[C@H](C)OC4=O)cc12 (single isomer, unassigned) [Compound 182] | 1.1 to 10 nM | 2.92 nM | 35.1 to 45 nM | 38.8 nM | – | – |

Further lines, results first:

| IC50 (MAP4K1 (HPK1); class designation) | IC50 (MAP4K1 (HPK1); numeric value) | EC50 (expanded CD3+ T cells; class designation) | EC50 (expanded CD3+ T cells; numeric value) | EC50 (expanded CD3+ T cells; [1]) | EC50 (expanded CD3+ T cells; [2]) | Compound |
| --- | --- | --- | --- | --- | --- | --- |
| < 0.3 nM | 0.29 nM | < 35 nM | 3.3 nM | – | – | COc1ncc(C(C)(C)N)c2cc(Nc3ccc4c(n3)C[C@H](C)OC4=O)ncc12 (single isomer, unassigned) [Compound 25] |
| 0.31 to 1 nM | 0.85 nM | < 35 nM | 16.2 nM | – | – | COc1ncc(C(C)(C)N)c2cc(Nc3ccc4c(n3)[C@@H](C)[C@@H](C)OC4=O)ncc12 (single isomer, unassigned) [Compound 39] |
| 0.31 to 1 nM | 0.57 nM | < 35 nM | 22.7 nM | – | – | CCOc1ncc(C(C)(C)N)c2cc(Nc3ccc4c(n3)C[C@H](C)OC4=O)ncc12 (single isomer, unassigned) [Compound 41] |
| 0.31 to 1 nM | 0.86 nM | < 35 nM | 13.6 nM | – | – | CCOc1ncc(C(C)(C)N)c2cc(Nc3ccc4c(n3)C[C@@H](C)OC4=O)ncc12 (single isomer, unassigned) [Compound 42] |
| < 0.3 nM | 0.23 nM | < 35 nM | 8.3 nM | – | – | CCOc1ncc(C(C)(C)N)c2cc(Nc3ccc4c(n3)[C@@H](C)COC4=O)ncc12 (single isomer, unassigned) [Compound 43] |
| 1.1 to 10 nM | 1.2 nM | < 35 nM | 22 nM | – | – | CCOc1ncc(C(C)(C)N)c2cc(Nc3ccc4c(n3)[C@H](C)COC4=O)ncc12 (single isomer, unassigned) [Compound 44] |
| < 0.3 nM | 0.15 nM | < 35 nM | 3.5 nM | – | – | CC[C@@](C)(N)c1cnc(OC)c2cnc(Nc3ccc4c(n3)CC(C)(C)OC4=O)cc12 (single isomer, unassigned) [Compound 61] |
| – | 0.12 nM | – | – | < 35 nM | 6.5 nM | C[C@@H]1c2nc(Nc3cc4c([C@](C)(N)C5CC5)ncc(OC5CC5)c4cn3)ccc2C(=O)OC1(C)C (single isomer, unassigned) [Compound 76] |
| 1.1 to 10 nM | 1.28 nM | > 55 nM | 81.7 nM | – | – | C[C@@H]1COC(=O)c2ccc(Nc3cc4c([C@](C)(N)C5CC5)cnc(OC5CC5)c4cn3)nc21 (single isomer, unassigned) [Compound 118] |
| < 0.3 nM | 0.18 nM | < 35 nM | 12.9 nM | – | – | CC[C@@](C)(N)c1cnc(OC2CC2)c2cnc(Nc3ccc4c(n3)CC(C)(C)OC4=O)cc12 (single isomer, unassigned) [Compound 132] |
| – | 0.27 nM | – | – | 35.1 to 45 nM | 45.2 nM | C[C@](N)(c1cnc(OC2CC2)c2cnc(Nc3ccc4c(n3)CC3(CC3)OC4=O)cc12)C1CC1 (single isomer, unassigned) [Compound 147] |
| – | 0.22 nM | – | – | < 35 nM | 27.3 nM | CC1(C)COC(=O)c2ccc(Nc3cc4c([C@](C)(N)C5CC5)cnc(OC5CC5)c4cn3)nc21 (single isomer, unassigned) [Compound 151] |
| 0.31 to 1 nM | 0.42 nM | > 55 nM | 54.4 nM | – | – | CC[C@]1(C)OC(=O)c2ccc(Nc3cc4c([C@](C)(N)C5CC5)cnc(OC5CC5)c4cn3)nc21 (single isomer, unassigned) [Compound 152] |
| 0.31 to 1 nM | 0.97 nM | > 55 nM | 88.4 nM | – | – | C[C@@H]1OC(=O)c2ccc(Nc3cc4c([C@](C)(N)C5CC5)cnc(OC5CC5)c4cn3)nc2[C@@H]1C (single isomer, unassigned) [Compound 155] |
